These results are taken from publication PMC8066331, “Anticancer Activity of Triazolo-Thiadiazole Derivatives and Inhibition of AKT1 and AKT2 Activation” (Pharmaceutics, 2021).

The IC50 is the concentration needed to halve the response being measured. By GI50 is commonly meant the concentration that inhibits growth by half.

The subject of assay [1] is UWB 1.289. Kind of assay: MTT in vitro antiproliferative assay, UWB 1.289. To be noted: UWB 1.289, MTT; for IC50 / GI50: Homo sapiens, UWB1289; for IC50: 48 h, 50% cell death; for GI50 / TGI: 48 h drug exposure. Format: cell-based, human. From the text:
(§1) The in vitro antiproliferative activities of the novel triazolo[3,4-b]thiadiazole derivatives were estimated in ten well-established human cancer cell lines including three ovarian (SKOV-3, UWB 1.289, and UWB 1.289+BRCA1), five colorectal adenocarcinoma (DLD-1, HT-29, LS174T, LoVo, and SW403), and two prostate cancer cell lines (PC-3 and DU-145). All cancer cell lines were obtained from the American Type Culture Collection (ATCC) and cultivated in different culture media according to the instructions. The required growth mediums were supplemented with 10% fetal bovine serum and 1% streptomycin/penicillin. All cancer cell lines were cultured as monolayers and maintained at 37 °C, 5% CO2 in humidified air.
(§2) Stock solutions of all tested compounds were prepared by dissolving the required amount of substances in the DMSO solvent to reach the desired concentration of 15 mM.
(§3) To evaluate the in vitro antiproliferative activity of the triazolo[3,4-b]thiadiazole derivatives, 3-(4,5-dimethylthiazol-2-yl)-2,5-diphenyltetrazolium bromide (MTT) assay was assessed. According to the protocol, cells were firstly seeded into a 96-well plate at a density of 8 × 10^3 cells and grown for 24 h at 37 °C, 5% CO2 in humidified air. Subsequently, cells were treated with the tested compounds in a specific range of drug concentrations (1–100 μΜ). Following 48 h of drug exposure, the culture media were discarded and replaced with 100 μL of fresh medium. Afterwards, 50 μL of dissolved MTT in phosphate-buffered saline (PBS) solution (5 mg/mL) were added in each well and cells were incubated for 3 h at 37 °C, 5% CO2 in humidified air. Incubation time was followed by MTT discard and the addition of 100 μL of DMSO solvent so that the formazan crystals could be dissolved. The absorbance of the converted dye was immediately measured at a wavelength of 540 nm on an ELISA reader (VersaMax Microplate Reader, Orleans, CA, USA).
(§4) The in vitro anticancer effect of a tested compound on cell viability was determined by three dose–response parameters termed GI50, TGI, and IC50. More specifically, the GI50 value indicates the required concentration of the compound that impels 50% cell growth inhibition, the TGI value corresponds to the concentration that induces 100% cell growth inhibition, and the IC50 value is the concentration that causes 50% cell death. The two parameters GI50 and TGI represent the cytostatic activity, whereas IC50 reflects the cytotoxic effect of a drug. To estimate the three parameters, nine absorbance measurements were required including control 24 h (Ct24), control 72 h (Ct72), and the mean of cell survival in all seven drug concentrations (Tt72). The percentage growth inhibition was calculated according to National Cancer Institute’s (NCI) protocol: [(Tt72x) − (Ct24)/(Ct72) − (Ct24)] × 100 for concentrations for which Tt72x > Ct24 and [(Tt72x) − (Ct24)/Ct24] × 100 for concentrations for which Tt72x < Ct24. GI50 was calculated from [(Tt72x) − (Ct24)/(Ct72) − (Ct24)] × 100 = 50, TGI was calculated from [(Tt72x) − (Ct24)/(Ct72) − (Ct24)] × 100 = 0, and IC50 was calculated from [(Tt72x) − (Ct24)/Ct24] × 100 = 50. All the experiments were carried out in triplicate.

The test system of assay [2] is PC-3. The assay is described as follows: MTT in vitro antiproliferative assay, PC-3. Conditions: Homo sapiens, PC-3, MTT; for IC50: 48 h, 50% cell death, read-out: IC50; for GI50 / IC (TGI): 48 h drug exposure; for GI50: read-out: GI50; for IC (TGI): read-out: TGI. Format: cell-based.
Source text: as §1, §2, §3, §4

For assay [3], the system named is LoVo. The assay is described as follows: MTT in vitro antiproliferative assay, LoVo. Format: cell-based, human. To be noted: for TGI / GI50: 48 h drug exposure; for IC50 / GI50: Homo sapiens; for IC50: 48 h, 50% cell death.
Source text: as §1, §2, §3, §4

Assay [4] deals with HT-29 human tumor (colorectal adenocarcinoma) xenograft. The assay is described as follows: In vivo antitumor activity, HT-29 xenograft. Conditions: HT-29 xenograft in CB17 SCID mice; for volume size of the tumors: eighteen days after single i.p. dose at LD10; for tumor inhibition (TI): single i.p. dose at LD10. The procedure: CB17 severe combined immunodeficient (SCID) male and female mice were used for toxicity and antitumor activity studies. Mice were obtained from National Center for Scientific Research (NCSR) Demokritos, Institute of Biology, Athens, Greece. CB17 SCID mice were fed water and an irradiated standard rodent diet ad libitum and housed under specific pathogen-free conditions. For ethical reasons, the weight and tumor volumes of the animals were measured twice a week during the experiment. In case of cachexia, suffering, or increase in the tumor volume up to 2000 mm^3, the animals were sacrificed by cervical disruption. The protocol was approved by the ethical committee of the National and Kapodistrian University of Athens and was conducted according to the European Directive 86/609/EEC guidelines for the care and use of laboratory animals. The study received a permit from the Veterinary Directorate of the Prefecture of Athens (approval #: 2023/2017) according to the Greek legislation conforming to the 2010/53/ EU Council Directive.
HT-29 (human colorectal adenocarcinoma) tumor volume was developed by subcutaneously implanting 2 × 10^6 HT-29 cells/mouse in the right hind flank. In vivo antitumor activity was investigated in 22 mice, of which 7 mice served as the common control group and the 15 remaining mice were divided into three groups of 5 mice. Therefore, each derivative was administered in a group of five mice. The animals were randomized into test groups on day 28 when their tumor volumes were in the 150–200 mm^3 range. After randomization, the mice were treated intraperitoneally (day 1) with the tested compounds (KA25, KA26, and KA39) as a single dose LD10. The control group received saline buffer (0.2 mL).
The tumor volumes were measured using an analogue caliper twice a week starting on the first day of treatment. To determine the volume (mm^3) of each tumor in an animal, the following formula was used: (D × d^2/2), where D and d refer to the larger and smaller perpendicular dimensions collected at each measurement, respectively. The diameters were determined from two orthogonal measurements on each tumor. The mean tumor volume was determined by average all tumor volumes in each group. The weekly mean tumor area change was determined and tumor inhibition (TI) was calculated by the formula: TI (%) = [1 − (TWT − TWZ)/[(TWC − TWZ)] × 100, where TWT is determined as the tumor area (mm^3) in treated animals at the time of evaluation, TWZ is determined as the tumor area (mm^3) at the time of initiation of treatment (zero time), and TWC is determined as the tumor volume (mm^3) in untreated animals (controls) at the time of evaluation. The animals were sacrificed when the tumor volume reached 2000 mm^3 (endpoint).

Assay [5] deals with HT-29. Set-up: method as in PMID 32801761. To be noted: HT-29 cells, concentration used for Akt phosphorylation study, determined in previous studies ref 23; cited from earlier work.
In assay [6] the test system is SW403. Kind of assay: MTT in vitro antiproliferative assay, SW403. Format: cell-based, human. Conditions: for TGI: 48 h drug exposure; for IC50 / GI50: Homo sapiens; for IC50: SW-403, 48 h, 50% cell death; for GI50: SW-403, 48 h drug exposure.
Source text: as §1, §2, §3, §4

In the case of `COc1cc(Cc2nnc3sc(-c4cc([N+](=O)[O-])ccc4[N+](=O)[O-])nn23)c(S(=O)(=O)N(C)C)cc1OC` [KA39], in assay [1], half-maximal inhibition (IC50) was put at 22 ± 1.2 µM, the 50% growth inhibitory concentration (GI50) was found to be 6 ± 0.2 µM and the TGI is on record as 10 ± 0.8 μΜ. In addition, in assay [2], the IC50 was 12 ± 0.1 µM, the concentration for 50% growth inhibition (GI50) was found to be 5 ± 0.15 µM and the IC (TGI) is 8 ± 0.1 µM. In addition, in assay [3], the TGI stood at 5.5 ± 0.1 μΜ, the IC50 was determined as 10.5 ± 0.15 µM and the concentration for 50% growth inhibition (GI50) came to 2.2 ± 0.2 µM. In addition, in assay [4], the “volume size of the tumors” value stood at 489.17 ± 81.5 mm^3 and the “tumor inhibition (TI)” value is 67.6%. Moreover, the TGI concentration in assay [5] is recorded as 15.9 μΜ. In assay [6], this molecule gave a TGI of 7.9 ± 0.7 μΜ, an IC50 of 10 ± 0.76 µM and a concentration for 50% growth inhibition (GI50) of 5.2 ± 0.2 µM.

As for `COc1cc(Cc2nnc3sc(C=Cc4ccc(Cl)cc4)nn23)c(S(=O)(=O)N(C)C)cc1OC` [KA26], in assay [1], half-maximal inhibition (IC50) required 70 ± 1.4 µM, the 50% growth inhibitory concentration (GI50) was determined as 29 ± 0.7 µM and the TGI was 53 ± 1 μΜ. In assay [2], the IC50 was > 100 µM, the GI50 was 42.5 ± 1.5 µM and the IC (TGI) is > 100 µM. Further, in assay [3], the TGI was >100 μΜ, the concentration for half-maximal inhibition (IC50) is > 100 µM and the 50% growth inhibitory concentration (GI50) was 15 ± 0.8 µM. Besides, in assay [4], the “volume size of the tumors” value came to 528.5 ± 167.7 mm^3 and the “tumor inhibition (TI)” value came to 62.4%. In addition, in assay [6], the TGI is recorded as >100 μΜ, the IC50 is > 100 µM and the concentration for 50% growth inhibition (GI50) came to 11 ± 0.8 µM.

As to `COc1cc(Cc2nnc3sc(C=Cc4ccc(F)cc4)nn23)c(S(=O)(=O)N(C)C)cc1OC` [KA25], in assay [1], the IC50 was 62 ± 1.2 µM, the 50% growth inhibitory concentration (GI50) is 2 ± 0.5 µM and the TGI was determined as 5 ± 0.7 μΜ. Moreover, in assay [2], the 50% inhibitory concentration (IC50) is > 100 µM, the GI50 stood at 14 ± 1 µM and the IC (TGI) came to 22 ± 0.8 µM. In assay [3], the TGI is 13.8 ± 0.52 μΜ, the IC50 was > 100 µM and the 50% growth inhibitory concentration (GI50) amounted to 8 ± 0.76 µM. Besides, in assay [4], the “volume size of the tumors” value stood at 521.6 ± 101.6 mm^3 and the “tumor inhibition (TI)” value worked out at 62.1%. Also, the TGI concentration in assay [5] was 120 μΜ. Further, in assay [6], the TGI is given as >100 μΜ, the IC50 was > 100 µM and it took 4.8 ± 0.8 µM to inhibit growth by half (GI50).
